Values of other authors in patent US20090074668A1, “Vldlr-/- mouse models and related methods” (priority 2007, published 2009).

Tested on: VEGF
Conditions: intraocular administration; in vitro and in vivo

For `CC1(C)O[C@@H]2C[C@H]3[C@@H]4CCC5=CC(=O)C=C[C@]5(C)[C@@]4(F)[C@@H](O)C[C@]3(C)[C@]2(C(=O)CO)O1` [Kenalog], the “effect on VEGF levels” value is given as “reduce VEGF levels”.
